Patent US20070154449A1, “TIGHT JUNCTION MODULATING PEPTIDES FOR ENHANCED MUCOSAL DELIVERY OF THERAPEUTIC COMPOUNDS” (Nastech Pharmaceutical Company Inc., priority 2005, published 2007)

What was measured:
[1] = Chemical stability of PN159 in solution (stability indicating HPLC); format: physicochemical; settings: for loss of native PN159: 25° C.
Procedure: The chemical stability of the PN159 was determined under therapeutically relevant storage conditions. A stability indicating HPLC method was employed. Solutions (50 mM) were stored at various pH (4.0, 7.3, and 9.0) and temperature (5° C., 25° C., 35° C., 40° C., and 50° C.) conditions. Samples at pH 4 contained 10 mM citrate buffer. Samples at pH 7.3 and 9.0 contained 10 mM phosphate buffer. […] For example, at 5° C. and pH 4.0 or pH 7.3, there was essentially 100% recovery of PN159 for six month storage. […] The pH range of 4.0 to 7.3 and the temperature range of refrigerated to ambient are most relevant for intranasal formulations.

[2] = tested on: human-derived tracheal/bronchial epithelial cells (EpiAirway™ Tissue model system); assay: Cytotoxicity (LDH assay), EpiAirway tissue model; format: cell-based
Procedure: The amount of cell death was assayed by measuring the release of lactate dehydrogenase (LDH) from the cells into the apical medium using a CytoTox 96 Cytotoxicity Assay Kit (Promega Corp., Madison, Wis.). One percent Octylphenolpoly (ethyleneglycolether)×(Triton X-100™) diluted in phosphate buffered saline (PBS) causes 100% lysis in cultured cells and served herein as a positive control for the LDH assay. Following the one hour incubation period with a test formulation (refer to Table 4 in Example 2 for details of test formulations), the total liquid volume of each insert was brought to a final volume of 200 μl with culture medium. The apical medium was then mixed by pipetting four times with a multichannel pipette set to a 100 μl volume. After mixing, a 100 μl sample from the apical side of each insert was transferred to a new 96-well plate. The apical media samples were sealed with a plate sealer and stored at room temperature for same day analysis or stored overnight at 4° C. for analysis the next day. To measure LDH levels, 5 μl of the 100 μl apical media sample was diluted in 45 μl DPBS in a new 96-well plate. Fresh, cell-free culture medium will be used as a blank. Fifty microliters of substrate solution was added to each well and incubated for 30 minutes at room temperature away from direct light. Following the 30 minute incubation, 50 μl of stop solution was added to each well. Optical density (OD) was measured at 490 nm with a uQuant absorbance plate reader from Biotek Instruments. The measurement of LDH release into the apical media indicates relative cytotoxicity of the samples. Percent cytotoxicity for each test formulation was calculated by subtracting the measured absorbance of the PBS control (basal level of LDH release) from the measured absorbance of the individual test formulation and then dividing that value by the measured absorbance for the 1% Triton X-100™ positive control, multiplied by 100.
The formula used to calculate percent cytotoxicity is as follows: [formula] Osmolality
Of the total 300 μl volume for each test formulation, only a 20 μl sample was applied to the human-derived tracheal/bronchial epithelial cells (EpiAirway™ Tissue model system) in order to assess the effect each test formulation had on TER, LDH and sample permeation.

[3] = tested on: in vitro epithelial tissue model; assay: Cell viability (MTT assay), in vitro epithelial tissue model; settings: galantamine lactate 40 mg/ml and PN159 at all concentrations tested (25, 50, 100 μM)

CC(C)C[C@H](NC(=O)[C@H](C)NC(=O)[C@H](CCCCN)NC(=O)[C@H](CC(C)C)NC(=O)[C@H](C)NC(=O)[C@H](CC(C)C)NC(=O)[C@H](CCCCN)NC(=O)[C@H](CC(C)C)NC(=O)[C@H](C)NC(=O)[C@H](CC(C)C)NC(=O)[C@@H](N)CCCCN)C(=O)N[C@@H](CCCCN)C(=O)N[C@@H](C)C(=O)N[C@@H](C)C(=O)N[C@@H](CC(C)C)C(=O)N[C@@H](CCCCN)C(=O)N[C@@H](CC(C)C)C(=O)N[C@@H](C)C(N)=O [PN159]
loss of native PN159 ([1]; pH 4, after six months): 7% | loss of native PN159 ([1]; pH 7, after six months): 26% | chemical stability of PN159 ([1]; pH 9 and/or elevated temperature, e.g., 40 to 50° C.): rapid deterioration | LDH ([2]; 25 μM peptide, 1 h incubation, % of 1% Triton X-100 control): 31% | cytotoxicity as measured by LDH ([2]; PN159 (25, 50, 100 μM) with galantamine lactate 40 mg/ml): low | Cell viability (MTT) [3]: > 80%
